Reference: PubChem BioAssay (NCI)
Values after ≈ are worked out from the molar mass of the structure shown.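 Exposure lasted 48 hours, with cells grown in 96-well plates and compounds tested at five concentrations. At the GI50, growth is halved. TGI is the concentration that stops growth completely.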

Key:
Test in all cases: DTP human tumour cell line panel, 48 h
[1] = system: SK-MEL-28 melanoma
[2] = system: IGROV1 ovarian
[3] = system: SNB-19 CNS
[4] = system: SF-295 CNS
[5] = system: K-562 leukemia
[6] = system: OVCAR-5 ovarian
[7] = system: SF-539 CNS
[8] = system: HL-60(TB) leukemia
[9] = system: MALME-3M melanoma
[10] = system: UACC-62 melanoma

Compound	TGI [1]	TGI [2]	TGI [3]	TGI [4]	TGI [5]	TGI [6]	TGI [7]	TGI [8]	TGI [9]	TGI [10]	GI50 [1] [µg/mL]	GI50 [2] [µg/mL]	GI50 [3] [µg/mL]	GI50 [4] [µg/mL]	GI50 [5] [µg/mL]	GI50 [6] [µg/mL]	GI50 [7] [µg/mL]	GI50 [8] [µg/mL]	GI50 [9] [µg/mL]	GI50 [10] [µg/mL]
O=C1CC2CC3OC3[C@H]3c4cc5c(cc4C(=O)N1C23)OCO5 (stereo not given in full)	> 100 µM	> 100 µM	> 100 µM	> 100 µM	> 100 µM	> 100 µM	> 100 µM	> 100 µM	> 100 µM	> 100 µM	–	–	–	–	–	–	–	–	–	–
CC(=O)Nc1ccc(C(=O)NN2C(=O)C(Cl)/C2=C/c2ccco2)cc1 (stereo not given)	> 100 µM	> 100 µM	> 100 µM	> 100 µM	> 100 µM	> 100 µM	> 100 µM	> 100 µM	> 100 µM	> 100 µM	–	–	–	–	–	–	–	–	–	–
COc1cc(C(C)O)c(S(=O)(=O)CC(C)O)nn1 (stereo not given)	> 100 µM	> 100 µM	> 100 µM	> 100 µM	> 100 µM	> 100 µM	> 100 µM	> 100 µM	> 100 µM	> 100 µM	–	–	–	–	–	–	–	–	–	–
Nc1[nH]nc(Nc2ccc(Cl)cc2)c1P(=O)(c1ccccc1)c1ccccc1	64.9 µM	55.2 µM	92.4 µM	44.5 µM	> 100 µM	45.6 µM	42.6 µM	82.3 µM	47.9 µM	56.4 µM	–	–	–	–	–	–	–	–	–	–
CC(=O)c1c(C)nc(SSc2nc(C)c(C(C)=O)c(-c3ccc(Cl)cc3)c2C#N)c(C#N)c1-c1ccc(Cl)cc1	> 150 µg/mL	> 150 µg/mL	> 150 µg/mL	> 150 µg/mL	> 150 µg/mL	> 150 µg/mL	> 150 µg/mL	> 150 µg/mL	> 150 µg/mL	> 150 µg/mL	103 (≈ 171 µM)	88.1 (≈ 146 µM)	78.4 (≈ 130 µM)	50.2 (≈ 83.1 µM)	60.6 (≈ 100 µM)	> 150	47.7 (≈ 79.1 µM)	> 150	50.9 (≈ 84.3 µM)	29 (≈ 48 µM)
CC(=O)OCC1OC(n2cc(F)c(=O)[nH]c2=O)C(NC(=O)OCc2ccccc2)C(OC(C)=O)C1OC(C)=O (stereo not given)	> 100 µM	> 100 µM	> 100 µM	> 100 µM	> 100 µM	> 100 µM	> 100 µM	> 100 µM	> 100 µM	> 100 µM	–	–	–	–	–	–	–	–	–	–
